From article PMC10115881, “Disrupting the α-synuclein-ESCRT interaction with a peptide inhibitor mitigates neurodegeneration in preclinical models of Parkinson’s disease” (Nature Communications, 2023)

Tested on: A53T a-syn or EV rats
Assay: AAV-A53T a-syn rat model, high titer, TH+ neurons
Assay type: in vivo
Settings: 6 weeks
Source text: Third, we used a preclinical rat model of PD in which SN degeneration is induced by AAV vector-mediated expression of human mutant A53T a-syn[18],[45]–[48] (Fig. 5A). […] (Fig. 5B, C). […] Furthermore, overexpression of A53T a-syn was associated with a reduction in LAMP1 positive puncta in the SN which was restored with PDpep1.3 (Figs. 5E, S5E). […] Forelimb asymmetry in the cylinder test is a behavioral impairment associated with SN degeneration which models bradykinesia, the cardinal motor abnormality in PD[49].
Adult female Sprague-Dawley rats (250–280 g; Envigo) were pair-housed in cages with wood bedding and had access to food and water ad libitum. […]
Immunofluorescence staining for a-syn, pS129 a-syn, TH, and LAMP1 was performed by washing free-floating sections with PBS-T (0.1% Tween-20 or 0.2% Triton-X-100) three times for 10 min each at room temperature. […] Sections were then mounted onto glass slides and allowed to dry and then Dako fluorescence mounting medium (Agilent) was applied, followed by coverslips.
Confocal images of immunofluorescent staining of midbrain sections were processed using HALO software (Indica Labs), which is a well validated tool for automatic quantification of neurons in brain tissue sections[70]–[72]. […] Levels of total a-syn were assessed in this ROI by measuring the area and intensity of anti-a-syn staining. […]

DEEIERQLKALG [PDpep1.3]
Effect on neurodegeneration in SN: neurodegeneration was mitigated
